Assay [1] deals with T1, WT TTR tetramer (Homo sapiens, UniProt P02766). Description: WT TTR tetramer dissociation rate in 6 M urea, Example 1. Type of assay: biochemical. To be noted: TTR 1.8 μM. The protocol:
Tetramer dissociation rates were measured by linking slow quaternary structural changes to the unfolding transition, with a rate of 5×10^5 times that of dissociation (Hammarström et al., Proc. Natl. Acad. Sci. U.S.A. 99, 16427 (2002)). Denaturation-detected dissociation is irreversible because the concentration of urea used (>6.0 M) cannot support refolding.

For assay [2], the target named is T2, TTR in human blood plasma (Homo sapiens, UniProt P02766). Description: Immunoprecipitation/HPLC binding stoichiometry of PCBs and OH-PCBs in plasma, Example 4. The arrangement: from tissue; host or cells: human blood plasma from healthy volunteers. The note with it: post-wash lower limit; for Equivalents Bound: PCB 10.8 μM in human blood plasma, TTR ≈5 μM; for Equivalents Bound (Plasma): OH-PCB 10.8 μM in human blood plasma.

Assay [3] addresses T2, TTR in human blood plasma. Description: Plasma selectivity: antibody capture/HPLC binding stoichiometry, Example 2. The note with it: 10.8 μM inhibitor in human plasma, 37° C., 24 h; post-wash lower limit; maximum 2 per TTR tetramer.
For assay [4], the target named is T2, TTR in human blood plasma. Type of assay: binding. The arrangement: from tissue; host or cells: human blood plasma from healthy volunteers. The note with it: test compound 10.8 μM, 24 h, 37° C. The procedure:
Human blood plasma (TTR conc. 3.6–5.4 μM) was incubated for 24 h with the test compound (10.8 μM) at 37° C. The TTR and any bound inhibitor were immunoprecipitated using a sepharose-bound polyclonal TTR antibody. The TTR with or without inhibitor bound was liberated from the resin at high pH, and the inhibitor:TTR stoichiometry was ascertained by HPLC analysis (FIG. 8).

In assay [5] the target is T3, TTR in whole blood (Homo sapiens, UniProt P02766).
T3 construct: Whole blood was drawn from healthy volunteers; from tissue; host or cells: human whole blood from healthy volunteers
Description: Binding stoichiometry of OH-PCBs in whole blood, Example 4. An excerpt: Up to two PCBs can bind to the two identical thyroid hormone binding sites in a TTR tetramer. […] Several of the hydroxylated PCBs (e.g., 16 and 22) approach a binding stoichiometry of 2.

The target of assay [6] is WT TTR (Homo sapiens, UniProt P02766). Description: Transthyretin amyloid fibril formation assay (pH 4.4, 72 h, OD 400 nm), Example 4. To be noted: equimolar inhibitor and TTR concentration (3.6 μM). It is filed as biochemical. The procedure:
TTR secreted into blood from the liver appears to be the source of systemic TTR amyloid. While it is not yet clear where or how amyloid is formed in humans, the typical denaturant in cells is acid, which is effective in converting nearly all amyloidogenic peptides and proteins into amyloid and/or related aggregates. […] Hydroxylated PCBs and PCB 3 were highly efficacious as TTR fibril inhibitors. At an inhibitor concentration equal to the WT TTR concentration (3.6 μM), only 12–50% of the normal amount of fibril formation was observed after a 72 h incubation period.
The compounds were dissolved in DMSO at a concentration of 720 μM. Five μL of a solution of the compound being evaluated was added to 0.5 mL of a 7.2 μM TTR solution in 10 mM phosphate pH 7.6, 100 mM KCl, 1 mM EDTA buffer, allowing the compound to incubate with TTR for 30 min. 495 μL of […] acetate pH 4.2, 100 mM KCl, 1 mM EDTA was added, to yield final protein and inhibitor concentrations of 3.6 μM each and a pH of 4.4. The mixture was then incubated at 37° C. for 72 h, after which the tubes were vortexed for 3 sec and the optical density was measured at 400 nm. The extent of fibril formation was determined by normalizing each optical density by that of TTR without inhibitor, defined to be 100% fibril formation. Control solutions of each compound in the absence of TTR were also tested and none absorbed appreciably at 400 nm.

In assay [7] the target is T1, WT TTR tetramer. Description: TTR tetramer dissociation kinetics by linked monomer unfolding in 6.5 M urea (far-UV CD), Example 2. The note with it: 3.6 μM TTR, 3.6 or 7.2 μM inhibitor, 168 h time-course.

For `O=C(O)c1cccc2oc(-c3c(Cl)cccc3Cl)nc12` [Compound 6], in assay [1], the “protection of the tetramer from dissociation in 6 M urea by T·I and T·I2” value is on record as “prevented tetramer dissociation in 6 M urea”. For the same compound, the “Equivalents Bound” value in assay [2] worked out at 0.19 ± 0.11.

As to `O=C(O)c1ccc(-c2ccc(F)cc2F)cc1` [Compound 12, 2′,4′-Difluorobiphenyl-4-carboxylic acid], the “Plasma Selectivity (equiv bound)” value in assay [3] was 0.20 ± 0.05 equiv bound.

“3′,5′-Difluorobiphenyl-3-carboxylic acid [Compound 17]”: in assay [2], the “Equivalents Bound (Plasma)” value is on record as 1.63 ± 0.05.

Regarding `O=C(O)c1cccc(-c2cc(Cl)c(O)c(Cl)c2)c1` [Compound 30, 3′,5′-Dichloro-4′-hydroxybiphenyl-3-carboxylic acid], the “Plasma Selectivity (equiv bound)” value in assay [3] is 0.12 ± 0.02 equiv bound.

Regarding “3′,5′-Difluorobiphenyl-3-ol [Compound 8]”, in assay [1], the “protection of the tetramer from dissociation in 6 M urea by T·I and T·I2” value is listed as “did not protect the tetramer substantially from dissociation in urea”. In addition, in assay [2], the “Equivalents Bound” value is listed as “No Binding”.

Regarding `O=C(O)c1cc(-c2ccccc2F)ccc1O` [Compound 24, 2′-Fluoro-4-hydroxybiphenyl-3-carboxylic acid], the “Plasma Selectivity (equiv bound)” value in assay [3] was 0.07 ± 0.02 equiv bound.

As for `O=C(O)c1cccc(-c2ccc(F)cc2F)c1` [Compound 11, 2′,4′-Difluorobiphenyl-3-carboxylic acid], the “inhibitor:TTR binding stoichiometry in human blood plasma” value in assay [4] is recorded as “displayed the highest binding stoichiometries”. Also, the “Plasma Selectivity (equiv bound)” value in assay [3] is reported as “none observed”. For the same compound, in assay [5], the “Equivalents Bound (Blood)” value came to 1.20. Besides, in assay [2], the “Equivalents Bound (Plasma)” value is 1.12 ± 0.22.

Consider `Oc1ccc(-c2ccc(F)cc2F)cc1` [Compound 3, 2′,4′-Difluorobiphenyl-4-ol], for which, in assay [2], the “Equivalents Bound” value was 1.50 ± 0.42.

For the compound `O=C(O)c1ccc(-c2ccccc2)cc1` [Compound 22, Biphenyl-4-carboxylic acid], in assay [3], the “Plasma Selectivity (equiv bound)” value amounted to 0.08 ± 0.01 equiv bound. For the same compound, the “Equivalents Bound (Blood)” value in assay [5] was 1.69. The “Equivalents Bound (Plasma)” value in assay [2] is reported as 1.67 ± 0.40.

For the compound “2′-Fluorobiphenyl-3-carboxylic acid [Compound 15]”, the “Equivalents Bound (Blood)” value in assay [5] amounted to 0.56. Further, the “Equivalents Bound (Plasma)” value in assay [2] turned out to be 0.70 ± 0.17. Moreover, the “efficacy as fibril inhibitor” value in assay [6] is on record as “among the highest observed to date”.

For the compound `O=Cc1cccc(-c2cc(Cl)cc(Cl)c2)c1` [Compound 39, 3′,5′-Dichloro-3-formylbiphenyl], in assay [3], the “Plasma Selectivity (equiv bound)” value was 1.30 ± 0.15 equiv bound. Besides, the “effect on TTR tetramer dissociation in 6.5 M urea” value (shortened to “effect”) in assay [7] was “overall reduction in the extent of tetramer dissociation”.

In the case of `Oc1cccc(-c2cc(F)cc(F)c2)c1` [Compound 8, 3′,5′-Difluorobiphenyl-3-ol], the “Plasma Selectivity (equiv bound)” value in assay [3] is listed as 0.18 ± 0.05 equiv bound.

With `O=C(O)c1ccc2oc(-c3c(Cl)cccc3Cl)nc2c1` [Compound 13], the “inhibitor:TTR binding stoichiometry in human blood plasma” value in assay [4] is on record as “displayed the highest binding stoichiometries”. Moreover, the “Equivalents Bound (Blood)” value in assay [5] was found to be 0.86. In assay [2], the “Equivalents Bound (Plasma)” value is recorded as 0.84 ± 0.24.

For the compound `OCc1ccc(-c2cc(Cl)cc(Cl)c2)cc1` [Compound 49, 3′,5′-Dichlorobiphenyl-4-yl-methanol], the “Plasma Selectivity (equiv bound)” value in assay [3] is reported as 0.54 ± 0.10 equiv bound. In addition, the “effect” value in assay [7] was “overall reduction in the extent of tetramer dissociation”.

With `O=C(O)c1cc(-c2ccc(Cl)cc2Cl)ccc1O` [Compound 26, 2′,4′-Dichloro-4-hydroxybiphenyl-3-carboxylic acid], in assay [3], the “Plasma Selectivity (equiv bound)” value is recorded as 0.27 ± 0.02 equiv bound.

As for “2′,6′-Difluorobiphenyl-3-carboxylic acid [Compound 19]”, the “Equivalents Bound (Blood)” value in assay [5] is listed as 1.55. For the same compound, in assay [2], the “Equivalents Bound (Plasma)” value is recorded as 1.48 ± 0.16.

As for `O=C(O)c1cc(-c2cc(F)cc(F)c2)ccc1O` [Compound 25, 3′,5′-Difluoro-4-hydroxybiphenyl-3-carboxylic acid], the “Plasma Selectivity (equiv bound)” value in assay [3] is “none observed”.

For the compound “2′,4′-Difluorobiphenyl-3-ol [Compound 2]”, the “Equivalents Bound” value in assay [2] worked out at 0.18 ± 0.03.

Regarding `O=C(O)c1ccc(-c2cc(Cl)c(O)c(Cl)c2)cc1` [Compound 31, 3′,5′-Dichloro-4′-hydroxybiphenyl-4-carboxylic acid], the “Plasma Selectivity (equiv bound)” value in assay [3] is listed as 0.26 ± 0.04 equiv bound.

As for `O=C(O)c1ccc(-c2cc(F)c(O)c(F)c2)cc1` [Compound 29, 3′,5′-Difluoro-4′-hydroxybiphenyl-4-carboxylic acid], in assay [3], the “Plasma Selectivity (equiv bound)” value was 0.07 ± 0.02 equiv bound.

In the case of `O=C(O)c1cccc2oc(-c3cc(Cl)cc(Cl)c3)nc12` [Compound 5], in assay [2], the “Equivalents Bound” value stood at 0.06 ± 0.04.

For `O=C(O)c1cc(-c2ccc(F)cc2F)ccc1O` [diflunisal, reference compound], the “Equivalents Bound” value in assay [2] is 0.62 ± 0.12.

Regarding `O=C(O)c1cccc(-c2ccccc2F)c1` [Compound 15, 2′-Fluorobiphenyl-3-carboxylic acid], the “Plasma Selectivity (equiv bound)” value in assay [3] was “none observed”.

Turning to `O=Cc1ccccc1-c1cc(Cl)cc(Cl)c1` [Compound 41, 3′,5′-Dichloro-2-formylbiphenyl], the “Plasma Selectivity (equiv bound)” value in assay [3] is 1.96 ± 0.11 equiv bound. Moreover, in assay [7], the “effect” value was “overall reduction in the extent of tetramer dissociation”.

Take `O=C(O)c1cc(-c2ccc(F)cc2)ccc1O` [Compound 23, 4′-Fluoro-4-hydroxybiphenyl-3-carboxylic acid]: the “Plasma Selectivity (equiv bound)” value in assay [3] was found to be 0.09 ± 0.00 equiv bound.

With `O=C(O)c1cc(-c2ccccc2)ccc1O` [Compound 27, 4-Hydroxybiphenyl-3-carboxylic acid], in assay [3], the “Plasma Selectivity (equiv bound)” value is reported as “none observed”.

As for `O=C(O)c1cccc(-c2c(F)cccc2F)c1` [Compound 19, 2′,6′-Difluorobiphenyl-3-carboxylic acid], in assay [3], the “Plasma Selectivity (equiv bound)” value is given as 0.29 ± 0.12 equiv bound.

As for `O=C(O)c1cccc(-c2cc(F)c(O)c(F)c2)c1` [Compound 28, 3′,5′-Difluoro-4′-hydroxybiphenyl-3-carboxylic acid], in assay [3], the “Plasma Selectivity (equiv bound)” value is “none observed”.

Consider “2′,4′-Difluorobiphenyl-4-carboxylic acid [Compound 12]”, for which, in assay [5], the “Equivalents Bound (Blood)” value was 1.47. Also, the “Equivalents Bound (Plasma)” value in assay [2] was 1.23 ± 0.24.

With `O=C(O)c1ccc(-c2ccccc2F)cc1` [Compound 16, 2′-Fluorobiphenyl-4-carboxylic acid], the “Plasma Selectivity (equiv bound)” value in assay [3] came to 0.08 ± 0.00 equiv bound. In assay [7], the “effect” value is “affinity is insufficient to affect kinetic stabilization”.

Take `OCc1ccccc1-c1cc(Cl)cc(Cl)c1` [Compound 50, 3′,5′-Dichlorobiphenyl-2-yl-methanol]: the “Plasma Selectivity (equiv bound)” value in assay [3] was “none observed”.

Regarding “2′-Fluorobiphenyl-4-carboxylic acid [Compound 16]”, the “Equivalents Bound (Plasma)” value in assay [2] was determined as 1.86 ± 0.14.

In the case of `O=C(O)c1ccc2oc(-c3ccccc3)nc2c1` [Compound 14], the “Equivalents Bound (Blood)” value in assay [5] was 0.73. For the same compound, the “Equivalents Bound (Plasma)” value in assay [2] turned out to be 0.81 ± 0.29. Moreover, the “efficacy as fibril inhibitor” value in assay [6] was “among the highest observed to date”.

Turning to `O=C(O)c1cccc(-c2cc(F)cc(F)c2)c1` [Compound 17, 3′,5′-Difluorobiphenyl-3-carboxylic acid], in assay [3], the “Plasma Selectivity (equiv bound)” value came to 0.23 ± 0.00 equiv bound.

The values above are taken from patent publication US7214696B2, “Compositions and methods for stabilizing transthyretin and inhibiting transthyretin misfolding” (The Scripps Research Institute, priority 2002, dated 2007).
